# In PubChem BioAssay (NCI):
#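 Growth conditions: 96-well plates. Treatment: test compound, 48 hours, 5 concentrations. Analysis: linear interpolation between bracketing concentrations; unreached endpoints set to highest concentration. Abbreviation: GI50, concentration required for 50% inhibition of growth. TGI: total growth inhibition.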
# Experiments:
# Test in all cases: NCI anticancer screen, dose series, 48 h
# [1] = test system: HOP-92 NSCLC
# [2] = test system: MALME-3M melanoma
# [3] = test system: SK-MEL-2 melanoma
# [4] = test system: UO-31 renal
# [5] = test system: CCRF-CEM leukemia
# [6] = test system: NCI-H522 lung
# [7] = test system: SW-620 colon
# [8] = test system: UACC-62 melanoma
# [9] = test system: K-562 leukemia
# [10] = test system: OVCAR-8 ovarian
# [11] = test system: A498 renal
# [12] = test system: ACHN renal
# [13] = test system: SR leukemia
# [14] = test system: CAKI-1 renal
# [15] = test system: UACC-257 melanoma
# [16] = test system: HS 578T breast
# [17] = test system: NCI-H23 lung
# [18] = test system: U251 CNS
# [19] = test system: OVCAR-5 ovarian
# [20] = test system: M14 melanoma
# [21] = test system: COLO 205 colon
# [22] = test system: LOX IMVI melanoma
# [23] = test system: HCT-116 colon
# [24] = test system: SK-MEL-5 melanoma
# [25] = test system: SF-539 CNS
# [26] = test system: A549 NSCLC
# [27] = test system: SNB-75 CNS
# [28] = test system: T-47D breast
# [29] = test system: OVCAR-3 ovarian
# [30] = test system: SN12C renal
# [31] = test system: SF-268 CNS
# [32] = test system: SF-295 CNS
# [33] = test system: IGROV1 ovarian
# [34] = test system: SK-MEL-28 melanoma
# [35] = test system: HCC-2998 colon
# [36] = test system: KM12 colon
# [37] = test system: HCT-15 colon
# [38] = test system: TK-10 renal
# [39] = test system: MDA-MB-231 breast
# [40] = test system: HL-60(TB) leukemia
# [41] = test system: MDA-MB-468 breast
# [42] = test system: 786-0 renal
# [43] = test system: BT-549 breast
# [44] = test system: MOLT-4 leukemia
# [45] = test system: HOP-62 NSCLC
# [46] = test system: SK-OV-3 ovarian
# [47] = test system: NCI-H226 lung
# [48] = test system: NCI-H460 lung
# [49] = test system: DU-145 prostate
# [50] = test system: RPMI-8226 leukemia
# [51] = test system: EKVX NSCLC
# [52] = test system: OVCAR-4 ovarian
# [53] = test system: PC-3 prostate
# [54] = test system: NCI/ADR-RES ovarian
# [55] = test system: SNB-19 CNS
# [56] = test system: MDA-MB-435
# [57] = test system: HT29 colon
# [58] = test system: MCF7 breast
smiles,measurement,setting,value
Clc1ccc2c(NCCNC34CC5CC(CC(C5)C3)C4)ccnc2c1,GI50,[1],0.484 µM
same,TGI,[1],3.17 µM
same,GI50,[2],1.25 µM
same,TGI,[2],4.24 µM
same,GI50,[3],3.37 µM
same,TGI,[3],6.62 µM
same,GI50,[4],2.57 µM
same,TGI,[4],5.38 µM
same,GI50,[5],5 µM
same,TGI,[5],12.9 µM
same,GI50,[6],2.9 µM
same,TGI,[6],6.34 µM
same,GI50,[7],2.83 µM
same,TGI,[7],6 µM
same,GI50,[8],3.03 µM
same,TGI,[8],6.05 µM
same,GI50,[9],0.756 µM
same,TGI,[9],4.57 µM
same,GI50,[10],2.9 µM
same,TGI,[10],6.16 µM
same,GI50,[11],3.09 µM
same,TGI,[11],6.1 µM
same,GI50,[12],2.88 µM
same,TGI,[12],5.83 µM
same,GI50,[13],0.622 µM
same,TGI,[13],2.31 µM
same,GI50,[14],2.82 µM
same,TGI,[14],5.76 µM
same,GI50,[15],3.24 µM
same,TGI,[15],6.62 µM
same,GI50,[16],2.64 µM
same,TGI,[16],6.51 µM
same,GI50,[17],3.41 µM
same,TGI,[17],6.82 µM
same,GI50,[18],1.32 µM
same,TGI,[18],4.78 µM
same,GI50,[19],2.9 µM
same,TGI,[19],6.05 µM
same,GI50,[20],0.43 µM
same,TGI,[20],0.837 µM
same,GI50,[21],0.416 µM
same,TGI,[21],1 µM
same,GI50,[22],1.06 µM
same,TGI,[22],4.07 µM
same,GI50,[23],1.43 µM
same,TGI,[23],4.91 µM
same,GI50,[24],3.12 µM
same,TGI,[24],6.12 µM
same,GI50,[25],0.533 µM
same,TGI,[25],1.21 µM
same,GI50,[26],3.19 µM
same,TGI,[26],7.18 µM
same,GI50,[27],3.15 µM
same,TGI,[27],6.97 µM
same,GI50,[28],3.33 µM
same,TGI,[28],7.75 µM
same,GI50,[29],3.11 µM
same,TGI,[29],6.1 µM
same,GI50,[30],3.24 µM
same,TGI,[30],6.34 µM
same,GI50,[31],3.03 µM
same,TGI,[31],6.14 µM
same,GI50,[32],3.47 µM
same,TGI,[32],6.67 µM
same,GI50,[33],3.37 µM
same,TGI,[33],6.65 µM
same,GI50,[34],3.15 µM
same,TGI,[34],6.2 µM
same,GI50,[35],0.889 µM
same,TGI,[35],3.32 µM
same,GI50,[36],2.87 µM
same,TGI,[36],5.82 µM
same,GI50,[37],0.763 µM
same,TGI,[37],3.28 µM
same,GI50,[38],3.71 µM
same,TGI,[38],7.28 µM
same,GI50,[39],2.38 µM
same,TGI,[39],5.19 µM
same,GI50,[40],3.69 µM
same,TGI,[40],8.73 µM
same,GI50,[41],0.435 µM
same,TGI,[41],1.21 µM
same,GI50,[42],2.41 µM
same,TGI,[42],5.57 µM
same,GI50,[43],2.67 µM
same,TGI,[43],6.03 µM
same,GI50,[44],3.63 µM
same,TGI,[44],10.2 µM
same,GI50,[45],3.7 µM
same,TGI,[45],7.41 µM
same,GI50,[46],4.32 µM
same,TGI,[46],8.21 µM
same,GI50,[47],3.04 µM
same,TGI,[47],6.5 µM
same,GI50,[48],3.31 µM
same,TGI,[48],6.61 µM
same,GI50,[49],3.57 µM
same,TGI,[49],6.72 µM
same,GI50,[50],1.22 µM
same,TGI,[50],9.55 µM
same,GI50,[51],3.53 µM
same,TGI,[51],7.16 µM
same,GI50,[52],2.95 µM
same,TGI,[52],7.8 µM
same,GI50,[53],3.1 µM
same,TGI,[53],7.77 µM
same,GI50,[54],3.21 µM
same,TGI,[54],6.42 µM
same,GI50,[55],3.8 µM
same,TGI,[55],7.19 µM
same,GI50,[56],0.566 µM
same,TGI,[56],1.6 µM
same,GI50,[57],0.675 µM
same,TGI,[57],2.71 µM
same,GI50,[58],0.868 µM
same,TGI,[58],3.47 µM
